Measured values reported in patent US20050137807A1, “Method of visualization of the ADME properties of chemical substances” (priority 2003, published 2005).
Where two headings read alike, the source gives them in different places.

Legend:
human serum albumin = human serum albumin (Homo sapiens, UniProt P02768); assay: binding constant to human serum albumin (TRANSIL technology)
Excerpt: The effective molecular weight (MW) is obtained simply from the respective empirical formula of the substance. The waters solubilities and the typical administered dosages of these commercially available products are furthermore known from the literature.
The ADME maps in FIGS. 5 to 10 show by way of example a selection of commercially available pharmaceutical substances. The substance names and the associated experimental measurement values for their physicochemical properties are summarised in Table 1.

[1] = membrane affinity as a measure of the lipophilicity (TRANSIL technology); assay type: physicochemical
[2] = log binding constant to human serum albumin, TRANSIL

human serum albumin, sequence (P02768 25-609): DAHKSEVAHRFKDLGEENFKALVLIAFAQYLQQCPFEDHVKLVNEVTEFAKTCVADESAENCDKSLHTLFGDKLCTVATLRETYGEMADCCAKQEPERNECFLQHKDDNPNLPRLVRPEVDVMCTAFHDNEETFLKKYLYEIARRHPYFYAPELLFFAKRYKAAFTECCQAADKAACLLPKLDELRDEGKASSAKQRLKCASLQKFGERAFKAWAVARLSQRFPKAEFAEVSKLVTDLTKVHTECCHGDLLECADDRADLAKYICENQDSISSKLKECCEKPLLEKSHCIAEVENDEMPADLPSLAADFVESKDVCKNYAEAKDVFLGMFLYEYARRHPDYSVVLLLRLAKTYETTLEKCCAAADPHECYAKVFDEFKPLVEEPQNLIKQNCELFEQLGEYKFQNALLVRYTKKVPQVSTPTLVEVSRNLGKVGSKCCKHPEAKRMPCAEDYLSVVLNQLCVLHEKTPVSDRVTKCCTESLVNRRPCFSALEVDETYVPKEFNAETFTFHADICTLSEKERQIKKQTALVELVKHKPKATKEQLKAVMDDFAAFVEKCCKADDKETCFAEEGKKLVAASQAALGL

Row | Compound | LogHSA (human serum albumin; human) | LogMA [1] | LogHSA (human serum albumin; [2]) | LogHSA (human serum albumin)
1 | CC(=O)Oc1ccccc1C(=O)O [Acetylsalicylic acid] | −3.097 | 0.301 |  | 
2 | Nc1nc2c(ncn2COCCO)c(=O)[nH]1 [Acyclovir] |  | −0.097 |  | 
3 | N=C(N)NC(=O)c1nc(Cl)c(N)nc1N [Amiloride] |  | 0.301 |  | 
4 | CCOC(=O)C1=C(COCCN)NC(C)=C(C(=O)OC)C1c1ccccc1Cl (stereo not shown) [Amlodipine] |  |  | −5.000 | 
5 | CC1(C)S[C@@H]2[C@H](NC(=O)[C@H](N)c3ccc(O)cc3)C(=O)N2[C@H]1C(=O)O [Amoxicilin] |  | 0.778 | −2.301 | 
6 | CC1(C)S[C@@H]2[C@H](NC(=O)[C@H](N)c3ccccc3)C(=O)N2[C@H]1C(=O)O [Ampicillin] |  | 1.114 |  | 
7 | Cc1cc(=O)n(-c2ccccc2)n1C [Antipyrine] |  | 1.146 |  | 
8 | CC(C)NCC(O)COc1ccc(CC(N)=O)cc1 (stereo not shown) [Atenolol] |  | 0.602 |  | 
9 | CC(C)NCC(O)COc1ccc(CCOCC2CC2)cc1 (stereo not shown) [Betaxolol] | −3.187 | 2.398 |  | 
10 | CCCCNc1cc(C(=O)O)cc(S(N)(=O)=O)c1Oc1ccccc1 [Bumetanide] | −5.076 | 2.279 |  | 
11 | C[C@H](CS)C(=O)N1CCC[C@H]1C(=O)O [Captopril] | −3.222 | 0.477 |  | 
12 | NC(=O)N1c2ccccc2C=Cc2ccccc21 [Carbamazepine] | −2.539 | 2.519 |  | 
13 | CC1=C(C(=O)O)N2C(=O)[C@@H](NC(=O)[C@H](N)c3ccc(O)cc3)[C@H]2SC1 [Cefadroxil] |  | 1.079 |  | 
14 | Cc1nnc(SCC2=C(C(=O)O)N3C(=O)[C@@H](NC(=O)Cn4cnnn4)[C@H]3SC2)s1 [Cefazolin] |  | 0.903 | −3.456 | 
15 | CO[C@@]1(NC(=O)CSCC#N)C(=O)N2C(C(=O)O)=C(CSc3nnnn3C)CS[C@@H]21 [Cefmetazole] |  | 1.079 |  | 
16 | CCN1CCN(C(=O)N[C@@H](C(=O)N[C@@H]2C(=O)N3C(C(=O)O)=C(CSc4nnnn4C)CS[C@H]23)c2ccc(O)cc2)C(=O)C1=O [Cefoperazone] |  | 1.362 |  | 
17 | CO[C@@]1(NC(=O)Cc2cccs2)C(=O)N2C(C(=O)O)=C(COC(N)=O)CS[C@@H]21 [Cefoxitin] |  | 1.000 |  | 
18 | CC1=C(C(=O)O)N2C(=O)[C@@H](NC(=O)[C@H](N)c3ccccc3)[C@H]2SC1 [Cephalexine] |  | 0.778 |  | 
19 | CN(C)CCCN1c2ccccc2Sc2ccc(Cl)cc21 [Chlorpromazine] | −3.284 | 4.075 |  | 
20 | CN/C(=N/CCSCc1nc[nH]c1C)NC#N [Cimetidine] | −1.876 | 1.176 |  | 
21 | O=C(O)c1cn(C2CC2)c2cc(N3CCNCC3)c(F)cc2c1=O [Ciprofloxacin] |  | 0.954 |  | 
22 | Clc1cccc(Cl)c1N=C1NCCN1 [Clonidine] | −2.463 | 1.602 |  | 
23 | CN1CCN(C2=Nc3cc(Cl)ccc3Nc3ccccc32)CC1 [Clozapine] | −3.814 |  |  | 
24 | CN1C(=O)CN=C(c2ccccc2)c2cc(Cl)ccc21 [Diazepam] |  | 3.170 |  | 
25 | O=C(O)Cc1ccccc1Nc1c(Cl)cccc1Cl [Diclofenac] |  | 2.940 |  | 

Row | Compound | LogHSA (human serum albumin; human) | LogMA [1] | LogHSA (human serum albumin; [2]) | LogHSA (human serum albumin)
26 | Cc1onc(-c2c(Cl)cccc2Cl)c1C(=O)N[C@@H]1C(=O)N2[C@@H]1SC(C)(C)[C@@H]2C(=O)O [Dicloxacillin] | −4.064 | 2.079 |  | 
27 | C[C@H]1O[C@@H](O[C@H]2[C@@H](O)C[C@H](O[C@H]3[C@@H](O)C[C@H](O[C@H]4CC[C@@]5(C)[C@H](CC[C@@H]6[C@@H]5C[C@@H](O)[C@]5(C)[C@@H](C7=CC(=O)OC7)CC[C@]65O)C4)O[C@@H]3C)O[C@@H]2C)C[C@H](O)[C@@H]1O [Digoxin] |  | 1.477 | −2.284 | 
28 | COc1ccc([C@@H]2Sc3ccccc3N(CCN(C)C)C(=O)[C@@H]2OC(C)=O)cc1 [Diltiazem] |  | 2.544 |  | 
29 | CCOC(=O)[C@H](CCc1ccccc1)N[C@@H](C)C(=O)N1CCC[C@H]1C(=O)O [Enalapril] | −2.959 | 1.000 |  | 
30 | C[C@H](N[C@@H](CCc1ccccc1)C(=O)O)C(=O)N1CCC[C@H]1C(=O)O [Enalaprilate] |  | 0.176 |  | 
31 | COc1cc([C@@H]2c3cc4c(cc3[C@@H](O[C@@H]3O[C@@H]5CO[C@@H](C)O[C@H]5[C@H](O)[C@H]3O)[C@H]3COC(=O)[C@H]23)OCO4)cc(OC)c1O [Etoposide] |  | 2.000 |  | 
32 | CCOC(=O)C1=C(C)NC(C)=C(C(=O)OC)C1c1cccc(Cl)c1Cl (stereo not shown) [Felodipine] |  |  | −5.301 | 
33 | CN1CCN(c2c(F)cc3c(=O)c(C(=O)O)cn(CCF)c3c2F)CC1 [Fleroxacin] | −2.523 | 1.301 |  | 
34 | CC(C)n1c(/C=C/C(O)CC(O)CC(=O)O)c(-c2ccc(F)cc2)c2ccccc21 (stereo not shown) [Fluvastatin] | −5.678 |  |  | 
35 | NS(=O)(=O)c1cc(C(=O)O)c(NCc2ccco2)cc1Cl [Furosemide] |  | 1.342 |  | 
36 | Nc1nc(O)c2ncn(COC(CO)CO)c2n1 [Ganciclovir] |  | −0.301 |  | 
37 | COc1ccc(Cl)cc1C(=O)NCCc1ccc(S(=O)(=O)NC(=O)NC2CCCCC2)cc1 [Glibenclamid] |  | 2.301 |  | −6.221
38 | O=C(CCCN1CCC(O)(c2ccc(Cl)cc2)CC1)c1ccc(F)cc1 [Haloperidol] | −2.745 | 3.723 |  | 
39 | C[C@]12CCC(=O)C=C1CC[C@@H]1[C@@H]2[C@@H](O)C[C@@]2(C)[C@H]1CC[C@]2(O)C(=O)CO [Hydrocortisone] |  | 2.716 |  | 
40 | CC(C)Cc1ccc(C(C)C(=O)O)cc1 (stereo not shown) [Ibuprofen] |  | 1.778 |  | 
41 | COc1ccc2c(c1)c(CC(=O)O)c(C)n2C(=O)c1ccc(Cl)cc1 [Indomethacin] |  | 2.255 |  | 
42 | CC(C(=O)O)c1cccc(C(=O)c2ccccc2)c1 (stereo not shown) [Ketoprofen] |  | 1.505 |  | 
43 | CCN(CC)CC(=O)Nc1c(C)cccc1C [Lidocaine] |  | 1.771 |  | 
44 | NCCCC[C@H](N[C@@H](CCc1ccccc1)C(=O)O)C(=O)N1CCC[C@H]1C(=O)O [Lisinopril] |  | 0.845 |  | 
45 | C[C@H]1C[C@@H]2[C@H]([C@@H](O)C[C@@]3(C)[C@H]2CC[C@]3(O)C(=O)CO)[C@@]2(C)C=CC(=O)C=C12 [Methylprednisolone] | −3.000 |  |  | 
46 | Cc1ccccc1N1C(=O)c2cc(S(N)(=O)=O)c(Cl)cc2NC1C (stereo not shown) [Metolazone] | −4.201 | 1.531 |  | 
47 | COCCc1ccc(OCC(O)CNC(C)C)cc1 (stereo not shown) [Metoprolol] | −2.000 | 1.591 |  | 
48 | COC(=O)C1=C(C)NC(C)=C(C(=O)OCCN(C)Cc2ccccc2)C1c1cccc([N+](=O)[O-])c1 (stereo not shown) [Nicardipine] | −5.000 |  |  | 
49 | COCCOC(=O)C1=C(C)NC(C)=C(C(=O)OC(C)C)C1c1cccc([N+](=O)[O-])c1 (stereo not shown) [Nimodipine] | −5.000 |  |  | 
50 | O=C1CN=C(c2ccccc2)c2cc(Cl)ccc2N1 [Nordiazepam] |  | 3.086 |  | 

Row | Compound | LogHSA (human serum albumin; human) | LogMA [1] | LogHSA (human serum albumin; [2]) | LogHSA (human serum albumin)
51 | CCn1cc(C(=O)O)c(=O)c2cc(F)c(N3CCNCC3)cc21 [Norfloxacin] | −3.000 | 0.602 |  | 
52 | C=CCOc1ccccc1OCC(O)CNC(C)C (stereo not shown) [Oxprenolol] | −3.301 | 2.301 |  | 
53 | CC(=O)Nc1ccc(O)cc1 [Paracetamol] | −2.000 | 0.778 |  | 
54 | CC(C)=CCN1CCC2(C)c3cc(O)ccc3CC1C2C (stereo not shown) [Pentazocin] |  | 2.633 | −2.510 | 
55 | CCCC(C)C1(CC)C(=O)NC(=O)NC1=O (stereo not shown) [Pentobarbital] |  | 2.176 | −2.523 | 
56 | CCC1(c2ccccc2)C(=O)NC(=O)NC1=O [Phenobarbital] |  |  | −2.854 | 
57 | CC1(C)S[C@@H]2[C@H](NC(=O)COc3ccccc3)C(=O)N2[C@H]1C(=O)O [Phenoxymethyl penicillinic acid] |  | 1.146 |  | −3.102
58 | CC(C)NCC(O)COc1cccc2[nH]ccc12 (stereo not shown) [Pindolol] | −2.699 | 2.398 |  | 
59 | CC(=O)Nc1ccc(OCC(O)CNC(C)C)cc1 (stereo not shown) [Practolol] |  | 1.301 |  | 
60 | COc1cc2nc(N3CCN(C(=O)c4ccco4)CC3)nc(N)c2cc1OC [Prazosin] |  | 2.544 |  | 
61 | C[C@]12C=CC(=O)C=C1CC[C@@H]1[C@@H]2[C@@H](O)C[C@@]2(C)[C@H]1CC[C@]2(O)C(=O)CO [Prednisolone] |  | 2.568 |  | 
62 | CCN(CC)CCNC(=O)c1ccc(N)cc1 [Procainamide] |  | 1.176 |  | 
63 | CC(=O)[C@H]1CC[C@H]2[C@@H]3CCC4=CC(=O)CC[C@]4(C)[C@H]3CC[C@]12C [Progesteron] |  | 3.843 | −6.189 | 
64 | CN(C)CCCN1c2ccccc2Sc2ccccc21 [Promazine] |  | 3.823 | −3.301 | 
65 | CC(CN1c2ccccc2Sc2ccccc21)N(C)C (stereo not shown) [Promethazine] | −3.028 | 3.992 |  | 
66 | CNC(=C[N+](=O)[O-])NCCSCc1ccc(CN(C)C)o1 [Ranitidine] | −2.155 |  |  | 
67 | O=C(O)c1ccccc1O [Salicylic acid] |  | 0.602 |  | 
68 | CN1[C@@H]2C[C@@H](OC(=O)[C@H](CO)c3ccccc3)C[C@H]1[C@@H]1O[C@@H]12 [Scopolamine] |  | 1.462 |  | 
69 | CC(C)NCC(O)c1ccc(NS(C)(=O)=O)cc1 (stereo not shown) [Sotalol] | −1.678 | 1.301 |  | 
70 | Cc1nnc(NS(=O)(=O)c2ccc(N)cc2)s1 [Sulfamethizole] | −4.000 | 1.000 |  | 
71 | O=C(O)c1cc(/N=N/c2ccc(S(=O)(=O)Nc3ccccn3)cc2)ccc1O [Sulfasalacine] |  | 2.748 |  | 
72 | NC[C@H]1CC[C@H](C(=O)O)CC1 [Tranexamic acid] | −4.000 | −0.301 |  | 
73 | CC(=O)CC(c1ccccc1)c1c(O)c2ccccc2oc1=O (stereo not shown) [Warfarin] |  | 1.505 |  | 
74 | Cc1cn([C@H]2C[C@H](N=[N+]=[N-])[C@@H](CO)O2)c(=O)[nH]c1=O [Zidovudine] |  | 0.903 |  | 
75 | Gentamicin |  | 0.000 |  | 
